These results are taken from US20120165319A1, “INHIBITORS OF INTERLEUKIN-1 BETA CONVERTING ENZYME” (VERTEX PHARMACEUTICALS INCORPORATED, priority 1995, published 2012).

pIC50, pKi: −log10 of the molar value. Read-outs that look alike come from different tables or passages of the source.

Test [1] deals with IL-1β production, LPS-challenged mice. The test is described as follows: In vivo acute assay for efficacy as anti-inflammatory agent: LPS-induced IL-1β production in mice. Also noted: species or system mouse. The note with it: for inhibition at 50 mg/kg: Mus musculus, po, LPS challenged mice, compound PO, read-out: percent inhibition of IL-1β production; for Inhibition (%) of IL-1β production in LPS-challenged mice: oral, dosed at time of LPS challenge. The protocol:
In Vivo Acute Assay for Efficacy as Anti-Inflammatory Agent
LPS-Induced IL-1β Production.
Efficacy of 214e and 217e was evaluated in CD1 mice (n=6 per condition) challenged with LPS (20 mg/kg IP). […] Blood was collected seven hours after LPS challenge. Serum IL-1β levels were measure by ELISA. […] Similar results were obtained in a second experiment. […] However, a clear dose response was not apparent.
Compounds 214e and 217e (50 mg/kg) were also administered by oral gavage to assess absorption.
The efficacy of analogs of 214e were also evaluated in LPS challenged mice after IP administration (FIG. 9) and PO administration (FIG. 10).
[…] The protocol is described in Example 7.

For a further test, the target named is T1, ICE (Homo sapiens, UniProt P29466).
T1 sequence (P29466 120-297 limits assumed): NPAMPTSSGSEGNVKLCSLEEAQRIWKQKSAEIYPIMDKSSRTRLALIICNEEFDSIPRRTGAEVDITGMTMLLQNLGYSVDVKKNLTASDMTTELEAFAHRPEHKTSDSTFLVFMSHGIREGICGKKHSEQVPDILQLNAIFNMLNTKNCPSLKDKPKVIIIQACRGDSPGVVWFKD
T1 sequence (P29466 317-404 limits assumed): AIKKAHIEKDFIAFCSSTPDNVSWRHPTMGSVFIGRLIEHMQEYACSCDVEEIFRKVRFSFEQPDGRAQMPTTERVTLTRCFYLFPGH
The test is described as follows: Enzyme assay with UV-visible substrate (visible ICE assay, Succinyl-Tyr-Val-Ala-Asp-pNitroanilide). It counts as biochemical. The procedure, abridged:
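Read-out is the rate of pNA chromophore release (mOD/min, linear fit) monitored at 405-603 nm over 20 min at 37° C. Substrate was succinyl-Tyr-Val-Ala-Asp-pNitroanilide, added after a 15 min room-temperature preincubation of ICE with inhibitor.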

The next test deals with IL-1β, human whole blood. As to the kind of experiment: Whole blood assay for IL-1β production. It counts as cell-based. The following applies: read-out: Whole human blood IC50. Summed up: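 Human whole blood collected on Na2EDTA was treated with serially diluted compound in saline and then stimulated with LPS at 5.0 ng/ml final, for 16-18 h at 30 °C, in duplicate or triplicate. Plasma IL-1β was measured by ELISA at 1:200 dilution.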

The test system of test [2] is IL-1β, human peripheral blood mononuclear cells (PBMC). As to the kind of experiment: PBMC cell assay: IL-1β assay with human PBMC or enriched adherent mononuclear cells, LPS-stimulated. It counts as cell-based. The note with it: Homo sapiens, PBMC. The procedure, abridged: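 Buffy-coat human PBMC at 6×10^6 cells/ml, or adherent monocytes enriched by 1 h adherence (2.5−3.0×10^5 cells/well), are given 5–6 compound dilutions bracketing the ICE Ki (final DMSO 0.1%) plus LPS at a final 5 ng/ml. They are incubated 16–18 hr at 37 °C, 5% CO2, and supernatant mature IL-1β is measured by ELISA, with duplicate cultures and duplicate ELISAs.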

The mark [3] stands for this setting: 0 h, administered 0 h relative to time of LPS challenge.
Where [4] appears, read: 2 h, administered −2 h relative to time of LPS challenge.
The mark [5] stands for this setting: Homo sapiens, * = values obtained upon reassay.
[6] abbreviates: * = values obtained upon reassay.

By inhibition is commonly meant how much of the control response was suppressed. For `CCOC(=O)C[C@@H](C=O)NC(=O)[C@@H]1CCCN2C(=O)CC[C@H](NC(=O)c3ccccc3)C(=O)N12` [Compound 2100i, [3S(1S,9S)]3-(9-Benzoylamino-6,10-dioxo-1,2,3,4,7,8,9,10-octahydro-6H-pyridazino[1,2-a][1,2]diazepine-1-carboxamido)-4-oxobutanoic acid ethyl ester], the inhibition at 50 mg/kg in test [1] (setting [3]) was 74%; in test [1] (setting [4]), 19%.
Turning to `CCO[C@H]1OC(=O)C[C@@H]1NC(=O)[C@@H]1CCCN2C(=O)CC[C@H](NC(=O)c3nccc4ccccc34)C(=O)N12` [Compound 412e, [1S,9S(2S,3S)]N-(2-Ethoxy-5-oxotetrahydrofuran-3-yl)-6,10-dioxo-9-(isoquinolin-1-oylamino)-1,2,3,4,7,8,9,10-octahydro-6-H-pyridazino[1,2-a][1,2]diazepine-1-carboxamide], the “Inhibition (%) of IL-1β production in LPS-challenged mice” value in test [1] (10 mg/kg dose) stood at 5%; in test [1] (25 mg/kg dose) it was 17%; in test [1] (50 mg/kg dose), 61%.
Turning to `O=C(CN1C(=O)[C@@H](NC(=O)c2ccccc2)CN(C(=O)CO)c2ccccc21)N[C@H]1CC(=O)OC1OCc1ccccc1` (mixture of isomers) [Compound 695a, (3S)-2-Oxo-3-benzoylamino-5-hydroxyacetyl-N-[(2RS,3S)-benzyloxy-5-oxo-tetrahydrofuran-3-yl]-2,3,4,5-tetrahydro-1H-1,5-benzodiazepine-1-acetamide], the inhibition at 50 mg/kg in test [1] (setting [3]) stood at 78%; in test [1] (setting [4]), 49%.
As usually defined, the pKi is −log10 of the Ki, conventionally taken in molar units. A low value points to a high Ki. One may read the pIC50 as the negative decadic logarithm of the IC50, by convention in mol/L. `Nc1ccc(C(=O)N[C@H]2CN(C(=O)CO)c3ccccc3N(CC(=O)N[C@H](C=O)CC(=O)O)C2=O)cc1Cl` [Compound 686] gave a pKi on ICE (Table 17) of 8.40. Also, the negative logarithm of the IC50 (pIC50) was 5.05 in the test with IL-1β, human whole blood (Homo sapiens, Table 17) and 5.40 in test [2] (Table 17).
For the compound `CC(=O)Nc1ccc(C(=O)N[C@H]2CN(C(=O)CO)c3ccccc3N(CC(=O)N[C@H](C=O)CC(=O)O)C2=O)cc1Cl` [Compound 914], the pKi at ICE (Table 17) is 8.28. For the same compound, the pIC50 was 5.55 in the test on IL-1β, human whole blood (Homo sapiens, Table 17) and 5.59 in test [2] (Table 17).
`COc1cccc(OC)c1C(=O)C(=O)NN1CCC(=O)N2CCC[C@@H](C(=O)N[C@H](C=O)CC(=O)O)N2C1=O` [Compound 1112] gave a pKi on ICE (Table 17) of 8.46. Further, the negative-log IC50 (pIC50) in the test with IL-1β, human whole blood (Homo sapiens, Table 17) was 5.64; in test [2] (Table 17) it was 5.74.
At ICE (Table 5), `CS(=O)(=O)Nc1ccc(C(=O)N[C@H]2CCC(=O)N3CCC[C@@H](C(=O)N[C@H](C=O)CC(=O)O)N3C2=O)cc1` [Compound 447] gave a pKi of 8.24. Moreover, the pIC50 in the test with IL-1β, human whole blood (setting [5]) was 5.82; in test [2] (setting [6]), 5.60.
On ICE (Table 17), `COc1cccc(OC)c1C(=O)C(=O)N[C@H]1CN(C(=O)CO)c2ccccc2N(CC(=O)N[C@H](C=O)CC(=O)O)C1=O` [Compound 678] showed a pKi of 8.30. The negative-log IC50 (pIC50) in the test with IL-1β, human whole blood (Homo sapiens, Table 17) is 5.66; in test [2] (Table 17) it was 5.57.
On ICE (Table 5), `CS(=O)(=O)c1ccc(C(=O)N[C@H]2CCC(=O)N3CCC[C@@H](C(=O)N[C@H](C=O)CC(=O)O)N3C2=O)cc1` [Compound 460] had a pKi of 6.94. Besides, the pIC50 in the test on IL-1β, human whole blood (setting [5]) is 5.62; in test [2] (setting [6]) it was 6.40.
The corresponding values for `Cc1ccc(Cl)cc1C(=O)N[C@H]1CCC(=O)N2CCC[C@@H](C(=O)N[C@H](C=O)CC(=O)O)N2C1=O` [Compound 466] are 9.10, 6.22 and 5.85.
In turn, `O=C[C@H](CC(=O)O)NC(=O)CN1C(=O)[C@@H](NC(=O)C(=O)c2ccccc2)CN(C(=O)CO)c2ccccc21` [Compound 681, (3S)-3-[(3S)-2-Oxo-3-benzoylformylamino-5-(2-hydroxy)acetyl-2,3,4,5-tetrahydro-1H-1,5-benzodiazepine-1-acetylamino]-4-oxo-butyric acid] gave a pKi on ICE (Table 17) of 8.05. For the same compound, the pIC50 in the test with IL-1β, human whole blood (Homo sapiens, Table 17) is 5.30; in test [2] (Table 17), 5.52.
On ICE (Table 5), `O=C[C@H](CC(=O)O)NC(=O)[C@@H]1CCCN2C(=O)CC[C@H](NC(=O)c3ccc(Oc4ccccc4)cc3)C(=O)N12` [Compound 443] showed a negative logarithm of the Ki (pKi) of 8.44. In addition, the pIC50 in the test on IL-1β, human whole blood (setting [5]) is 5.82; in test [2] (setting [6]), 5.55.
Turning to `CC(=O)N1C[C@H](NC(=O)c2ccc3cc(O)ccc3c2)C(=O)N(CC(=O)N[C@H](C=O)CC(=O)O)c2ccccc21` [Compound 622], at ICE (Table 5), the pKi was 7.46. The pIC50 with IL-1β, human whole blood (setting [5]) is less than 4.70; in test [2] (setting [6]), 5.89.
`CC(=O)N1C[C@H](NC(=O)C(=O)c2c(C)cc(C)cc2C)C(=O)N(CC(=O)N[C@H](C=O)CC(=O)O)c2ccccc21` [Compound 709] gave a pKi at ICE (Table 17) of 8.00. Besides, the pIC50 in the test with IL-1β, human whole blood (Homo sapiens, Table 17) is 4.85; in test [2] (Table 17), 5.68.
On ICE (Table 5), `O=C[C@H](CC(=O)O)NC(=O)[C@@H]1CCCN2C(=O)CC[C@H](NC(=O)c3ccc(NC(=O)c4ccccc4)cc3)C(=O)N12` [Compound 483] had a pKi of 8.77. Moreover, the pIC50 in the test on IL-1β, human whole blood (setting [5]) is 6.15; in test [2] (setting [6]) it was 6.05.
In the case of `CCC(=O)Nc1ccc(C(=O)N[C@H]2CCC(=O)N3CCC[C@@H](C(=O)N[C@H](C=O)CC(=O)O)N3C2=O)cc1` [Compound 485], at ICE (Table 5), the pKi is 8.70. The pIC50 in the test on IL-1β, human whole blood (setting [5]) is 6.05; in test [2] (setting [6]), 6.05.
For the compound `CN(C)c1ccc(C(=O)N[C@H]2CCC(=O)N3CCC[C@@H](C(=O)N[C@H](C=O)CC(=O)O)N3C2=O)c2ccccc12` [Compound 441], at ICE (Table 5), the pKi is 9.00. Besides, the pIC50 was 5.35 with IL-1β, human whole blood (setting [5]) and 5.60 in test [2] (setting [6]).
As to `COc1ccccc1C(=O)C(=O)NN1CCC(=O)N2CCC[C@@H](C(=O)N[C@H](C=O)CC(=O)O)N2C1=O` [Compound 1111], the pKi at ICE (Table 17) is 7.74. Further, the pIC50 in the test with IL-1β, human whole blood (Homo sapiens, Table 17) was 5.36; in test [2] (Table 17), 5.22.
On ICE (Table 5), `O=C[C@H](CC(=O)O)NC(=O)[C@@H]1CCCN2C(=O)CC[C@H](NC(=O)c3cccc4cccnc34)C(=O)N12` [Compound 439] had a pKi of 8.43. Also, the pIC50 was 5.47 in the test with IL-1β, human whole blood (setting [6]); 5.49 in the test with IL-1β, human whole blood (setting [5]); 5.55 in test [2] (setting [6]).
`O=C[C@H](CC(=O)O)NC(=O)CN1C(=O)[C@@H](NC(=O)c2ccc(O)cc2)CN(C(=O)CO)c2ccccc21` [Compound 691b, (3S)-3-[(3S)-2-Oxo-3-(4-hydroxybenzoyl)amino-5-hydroxyacetyl-2,3,4,5-tetrahydro-1H-1,5-benzodiazepine-1-acetylamino]-4-oxo-butyric acid] showed a pKi at ICE (Table 17) of 7.94. In addition, the pIC50 with IL-1β, human whole blood (Homo sapiens, Table 17) is 5.85; in test [2] (Table 17) it was 5.72.
`COc1cccc(OC)c1C(=O)C(=O)N[C@H]1CN(C(C)=O)c2ccccc2N(CC(=O)N[C@H](C=O)CC(=O)O)C1=O` [Compound 706]: on ICE (Table 17), the pKi was 8.30. Further, the pIC50 in the test on IL-1β, human whole blood (Homo sapiens, Table 17) was 5.24; in test [2] (Table 17) it was 5.62.
Consider `CC(=O)Nc1c(Cl)cc(C(=O)N[C@H]2CN(C(=O)CO)c3ccccc3N(CC(=O)N[C@H](C=O)CC(=O)O)C2=O)cc1Cl` [Compound 915], for which the pKi at ICE (Table 17) is 7.94. Further, the pIC50 in the test with IL-1β, human whole blood (Homo sapiens, Table 17) was 5.72; in test [2] (Table 17), less than 5.10.
`COc1ccc(C(=O)N[C@H]2CCC(=O)N3CCC[C@@H](C(=O)N[C@H](C=O)CC(=O)O)N3C2=O)cc1F` [Compound 493] had a pKi at ICE (Table 5) of 7.60. For the same compound, the pIC50 in the test with IL-1β, human whole blood (setting [6]) is 6.07; in the test with IL-1β, human whole blood (setting [5]), 6.10; in test [2] (setting [6]) it was 5.92.
As to `Cc1c(O)cccc1C(=O)N[C@H]1CCC(=O)N2CCC[C@@H](C(=O)N[C@H](C=O)CC(=O)O)N2C1=O` [Compound 476], the negative logarithm of the Ki (pKi) at ICE (Table 5) is 8.15. Besides, the pIC50 in the test with IL-1β, human whole blood (setting [5]) was 5.60; in test [2] (setting [6]), 5.80.
On ICE (Table 5), `Cc1cc2c(cc1C(=O)N[C@H]1CCC(=O)N3CCC[C@@H](C(=O)N[C@H](C=O)CC(=O)O)N3C1=O)OCO2` [Compound 473] showed a pKi of 9.00. Moreover, the pIC50 in the test with IL-1β, human whole blood (setting [6]) was 6.35; in the test on IL-1β, human whole blood (setting [5]) it was 6.40; in test [2] (setting [6]), 6.00.
